Assay results published in publication PMC2949283 (The Biochemical journal, 2009).
Like-named read-outs stand apart in the source and are kept apart here.

What was measured:
Type in all cases: biochemical
[1] = molecular target: Wild Type HuAChE (Homo sapiens, UniProt P22303); test: HuAChE inhibition kinetics
[2] = molecular target: W86A HuAChE (Homo sapiens, UniProt P22303, W117A); test: HuAChE inhibition kinetics
[3] = molecular target: W86F HuAChE (Homo sapiens, UniProt P22303, W117F); test: HuAChE inhibition kinetics
[4] = molecular target: Y133A HuAChE (Homo sapiens, UniProt P22303, Y164A); test: HuAChE inhibition kinetics
[5] = molecular target: Y337A HuAChE (Homo sapiens, UniProt P22303, Y368A); test: HuAChE inhibition kinetics
[6] = molecular target: Y337F HuAChE (Homo sapiens, UniProt P22303, Y368F); test: HuAChE inhibition kinetics
[7] = molecular target: F338A HuAChE (Homo sapiens, UniProt P22303, F369A); test: HuAChE inhibition kinetics
[8] = molecular target: Y133F HuAChE (Homo sapiens, UniProt P22303, Y164F); test: HuAChE inhibition kinetics
[9] = molecular target: E202A HuAChE (Homo sapiens, UniProt P22303, E233A); test: HuAChE inhibition kinetics
[10] = molecular target: E202Q HuAChE (Homo sapiens, UniProt P22303, E233Q); test: HuAChE inhibition kinetics
[11] = molecular target: E450A HuAChE (Homo sapiens, UniProt P22303, E481A); test: HuAChE inhibition kinetics
[12] = molecular target: F295A HuAChE (Homo sapiens, UniProt P22303, F326A); test: HuAChE inhibition kinetics
[13] = molecular target: F297A HuAChE (Homo sapiens, UniProt P22303, F328A); test: HuAChE inhibition kinetics; settings: F297A HuAChE
[14] = molecular target: D74N HuAChE (Homo sapiens, UniProt P22303, D105N); test: HuAChE inhibition kinetics
[15] = molecular target: W286A HuAChE (Homo sapiens, UniProt P22303, W317A); test: HuAChE inhibition kinetics
[16] = molecular target: Y341A HuAChE (Homo sapiens, UniProt P22303, Y372A); test: HuAChE inhibition kinetics
[17] = molecular target: F295A/F338A HuAChE (Homo sapiens, UniProt P22303, F326A/F369A); test: HuAChE inhibition kinetics
[18] = molecular target: F295A/F338A/V407F HuAChE (Homo sapiens, UniProt P22303, F326A/F369A/V438F); test: HuAChE inhibition kinetics
[19] = molecular target: F295L/F297V/Y337A HuAChE (Homo sapiens, UniProt P22303, F326L/F328V/Y368A); test: HuAChE inhibition kinetics
[20] = molecular target: Y72N/Y124Q/W286A/ F295L/F297V/Y337A HuAChE (Homo sapiens, UniProt P22303, F326L/F328V/W317A/Y103N/Y155Q/Y368A); test: HuAChE inhibition kinetics
[21] = molecular target: HuBChE-Wild Type (Homo sapiens, UniProt P06276); test: HuBChE inhibition kinetics
[22] = molecular target: Y72N HuAChE (Homo sapiens, UniProt P22303, Y103N); test: HuAChE inhibition kinetics
[23] = molecular target: F295L/F297V HuAChE (Homo sapiens, UniProt P22303, F326L/F328V); test: HuAChE inhibition kinetics
[24] = molecular target: F295A/F297A HuAChE (Homo sapiens, UniProt P22303, F326A/F328A); test: HuAChE inhibition kinetics
[25] = molecular target: Y72N/Y124Q/W286A/ F295L/F297V/Y337A/ V407F HuAChE (Homo sapiens, UniProt P22303, F326L/F328V/V438F/W317A/Y103N/Y155Q/Y368A); test: HuAChE inhibition kinetics
[26] = read-out: Kd, noncovalent inhibition (competition with ATC), Wild Type HuAChE
[27] = read-out: Kd, noncovalent inhibition (competition with ATC), W86A HuAChE
[28] = read-out: Kd, noncovalent inhibition (competition with ATC), Y337A HuAChE
[29] = read-out: Kd, noncovalent inhibition (competition with ATC), F338A HuAChE

Sequence of W86A HuAChE (P22303 32-614 W117A): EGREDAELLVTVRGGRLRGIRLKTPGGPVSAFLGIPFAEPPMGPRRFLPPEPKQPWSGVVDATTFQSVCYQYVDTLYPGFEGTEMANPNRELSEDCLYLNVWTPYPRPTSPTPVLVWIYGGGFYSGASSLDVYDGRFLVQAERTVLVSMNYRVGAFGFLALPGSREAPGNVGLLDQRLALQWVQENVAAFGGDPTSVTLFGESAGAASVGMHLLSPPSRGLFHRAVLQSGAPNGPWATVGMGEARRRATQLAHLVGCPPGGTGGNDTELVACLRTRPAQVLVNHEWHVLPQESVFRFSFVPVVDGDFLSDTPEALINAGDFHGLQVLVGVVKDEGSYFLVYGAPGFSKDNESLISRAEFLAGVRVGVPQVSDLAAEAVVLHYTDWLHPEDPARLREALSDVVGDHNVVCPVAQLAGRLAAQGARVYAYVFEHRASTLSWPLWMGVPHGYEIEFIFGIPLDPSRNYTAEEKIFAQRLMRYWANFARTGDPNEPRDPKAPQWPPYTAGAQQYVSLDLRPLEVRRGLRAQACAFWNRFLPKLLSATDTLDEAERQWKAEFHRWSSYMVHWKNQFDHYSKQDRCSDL
Sequence of Wild Type HuAChE (P22303 32-614): as the sequence (P22303 32-614 W117A) above, with A86W counted along it
Sequence of Y337A HuAChE (P22303 32-614 Y368A): as the sequence (P22303 32-614 W117A) above, with A86W, Y337A counted along it
Sequence of F338A HuAChE (P22303 32-614 F369A): as the sequence (P22303 32-614 W117A) above, with A86W, F338A counted along it
Sequence of E202Q HuAChE (P22303 32-614 E233Q): as the sequence (P22303 32-614 W117A) above, with A86W, E202Q counted along it
Sequence of F295A/F297A HuAChE (P22303 32-614 F326A/F328A): as the sequence (P22303 32-614 W117A) above, with A86W, F295A, F297A counted along it
Sequence of F295A/F338A/V407F HuAChE (P22303 32-614 F326A/F369A/V438F): as the sequence (P22303 32-614 W117A) above, with A86W, F295A, F338A, V407F counted along it
Sequence of F295L/F297V HuAChE (P22303 32-614 F326L/F328V): as the sequence (P22303 32-614 W117A) above, with A86W, F295L, F297V counted along it
Sequence of Y72N HuAChE (P22303 32-614 Y103N): as the sequence (P22303 32-614 W117A) above, with Y72N, A86W counted along it
Sequence of HuBChE-Wild Type (P06276 29-602): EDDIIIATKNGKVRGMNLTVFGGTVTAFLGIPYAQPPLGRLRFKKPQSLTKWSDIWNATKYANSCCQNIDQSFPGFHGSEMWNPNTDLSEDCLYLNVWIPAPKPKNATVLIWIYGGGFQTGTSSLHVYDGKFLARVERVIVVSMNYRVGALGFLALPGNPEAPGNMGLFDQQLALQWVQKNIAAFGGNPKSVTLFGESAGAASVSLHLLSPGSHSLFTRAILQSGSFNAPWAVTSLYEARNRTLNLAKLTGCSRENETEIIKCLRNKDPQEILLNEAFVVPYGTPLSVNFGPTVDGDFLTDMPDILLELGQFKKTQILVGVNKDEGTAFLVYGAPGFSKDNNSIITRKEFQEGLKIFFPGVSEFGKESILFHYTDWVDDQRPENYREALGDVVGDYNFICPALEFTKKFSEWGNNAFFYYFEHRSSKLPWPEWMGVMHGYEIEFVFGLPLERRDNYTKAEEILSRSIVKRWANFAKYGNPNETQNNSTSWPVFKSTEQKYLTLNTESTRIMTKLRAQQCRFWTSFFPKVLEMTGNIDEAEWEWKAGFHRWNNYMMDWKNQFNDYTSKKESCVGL
Sequence of Y133A HuAChE (P22303 32-614 Y164A): as the sequence (P22303 32-614 W117A) above, with A86W, Y133A counted along it
Sequence of E450A HuAChE (P22303 32-614 E481A): as the sequence (P22303 32-614 W117A) above, with A86W, E450A counted along it
Sequence of D74N HuAChE (P22303 32-614 D105N): as the sequence (P22303 32-614 W117A) above, with D74N, A86W counted along it
Sequence of F295A HuAChE (P22303 32-614 F326A): as the sequence (P22303 32-614 W117A) above, with A86W, F295A counted along it
Sequence of W86F HuAChE (P22303 32-614 W117F): as the sequence (P22303 32-614 W117A) above, with A86F counted along it
Sequence of E202A HuAChE (P22303 32-614 E233A): as the sequence (P22303 32-614 W117A) above, with A86W, E202A counted along it
Sequence of F295L/F297V/Y337A HuAChE (P22303 32-614 F326L/F328V/Y368A): as the sequence (P22303 32-614 W117A) above, with A86W, F295L, F297V, Y337A counted along it
Sequence of Y341A HuAChE (P22303 32-614 Y372A): as the sequence (P22303 32-614 W117A) above, with A86W, Y341A counted along it
Sequence of Y337F HuAChE (P22303 32-614 Y368F): as the sequence (P22303 32-614 W117A) above, with A86W, Y337F counted along it
Sequence of Y133F HuAChE (P22303 32-614 Y164F): as the sequence (P22303 32-614 W117A) above, with A86W, Y133F counted along it
Sequence of Y72N/Y124Q/W286A/ F295L/F297V/Y337A/ V407F HuAChE (P22303 32-614 Y103N/Y155Q/W317A/F326L/F328V/Y368A/V438F): as the sequence (P22303 32-614 W117A) above, with Y72N, A86W, Y124Q, W286A, F295L, F297V, Y337A, V407F counted along it
Sequence of F297A HuAChE (P22303 32-614 F328A): as the sequence (P22303 32-614 W117A) above, with A86W, F297A counted along it
Sequence of F295A/F338A HuAChE (P22303 32-614 F326A/F369A): as the sequence (P22303 32-614 W117A) above, with A86W, F295A, F338A counted along it
Sequence of Y72N/Y124Q/W286A/ F295L/F297V/Y337A HuAChE (P22303 32-614 Y103N/Y155Q/W317A/F326L/F328V/Y368A): as the sequence (P22303 32-614 W117A) above, with Y72N, A86W, Y124Q, W286A, F295L, F297V, Y337A counted along it
Sequence of W286A HuAChE (P22303 32-614 W317A): as the sequence (P22303 32-614 W117A) above, with A86W, W286A counted along it

CN1CC[C@@]2(C)c3cc(OC(=O)Nc4ccccc4)ccc3N(C)[C@@H]12 [(−)-Phenserine, phenserine]
Kd [1]: 1.39 ± 0.55 µM | k2, carbamylation rate constant ([1]; Wild Type HuAChE): 0.9 ± 0.5 min⁻¹ | Kd [2]: 20 ± 9 µM | k2, carbamylation rate constant ([2]; W86A HuAChE): 1.3 ± 1.0 min⁻¹ | Kd [3]: 0.87 ± 0.34 µM | k2, carbamylation rate constant ([3]; W86F HuAChE): 1.3 ± 0.9 min⁻¹ | Kd [4]: 76 ± 15 µM | k2, carbamylation rate constant ([4]; Y133A HuAChE): 0.4 ± 0.06 min⁻¹ | Kd [5]: 2.75 ± 0.28 µM | k2, carbamylation rate constant ([5]; Y337A HuAChE): 0.8 ± 0.4 min⁻¹ | Kd [6]: 0.28 ± 0.03 µM | k2, carbamylation rate constant ([6]; Y337F HuAChE): 0.9 ± 0.07 min⁻¹ | Kd [7]: 41.3 ± 9.5 µM | k2, carbamylation rate constant ([7]; F338A HuAChE): 0.7 ± 0.1 min⁻¹ | Kd [8]: 7.6 ± 1.9 µM | k2, carbamylation rate constant ([8]; Y133F HuAChE): 0.3 ± 0.09 min⁻¹ | Kd [9]: 9.1 ± 3.6 µM | k2, carbamylation rate constant ([9]; E202A HuAChE): 0.2 ± 0.1 min⁻¹ | Kd [10]: 17.4 ± 3.4 µM | k2, carbamylation rate constant ([10]; E202Q HuAChE): 3.2 ± 1 min⁻¹ | Kd [11]: 7.4 ± 1.9 µM | k2, carbamylation rate constant ([11]; E450A HuAChE): 0.2 ± 0.04 min⁻¹ | Kd [12]: 0.09 ± 0.04 µM | k2, carbamylation rate constant ([12]; F295A HuAChE): 2.1 ± 1.2 min⁻¹ | k2, carbamylation rate constant [13]: 1.0 ± 0.5 min⁻¹ | Kd [14]: 3.4 ± 0.61 µM | k2, carbamylation rate constant ([14]; D74N HuAChE): 0.7 ± 0.01 min⁻¹ | Kd [15]: 0.16 ± 0.03 µM | Kd [16]: 0.69 ± 0.21 µM | k2, carbamylation rate constant ([16]; Y341A HuAChE): 0.7 ± 0.3 min⁻¹ | Kd [17]: 0.03 ± 0.008 µM | Kd [18]: 27.2 ± 5.5 µM | k2, carbamylation rate constant ([18]; F295A/F338A/V407F HuAChE): 0.3 ± 0.1 min⁻¹ | Kd [19]: 0.3 ± 0.006 µM | k2, carbamylation rate constant ([19]; F295L/F297V/Y337A HuAChE): 0.9 ± 0.2 min⁻¹ | Kd [20]: 0.12 ± 0.03 µM | Kd [21]: 9 ± 3 µM | k2, carbamylation rate constant ([21]; HuBChE-Wild Type): 0.6 ± 0.2 min⁻¹ | Kd [22]: 0.74 ± 0.19 µM | k2, carbamylation rate constant ([22]; Y72N HuAChE): 1.7 ± 0.2 min⁻¹ | Kd [23]: 0.8 ± 0.36 µM | k2, carbamylation rate constant ([23]; F295L/F297V HuAChE): 3.0 ± 1.8 min⁻¹ | k2, carbamylation rate constant [24]: 8.5 ± 2.5 min⁻¹ | Kd ([24]; Kd, Michaelis complex (Eq. 1)): 2.8 ± 0.8 µM | Kd [25]: 20.3 ± 6.1 µM

CC(C)c1ccc(NC(=O)Oc2ccc3c(c2)C2(C)CCOC2N3C)cc1 (single isomer, unassigned; (-)) [(−)-Cymyl carbamate of physovenol, cymyl carbamate of physovenol]
Kd [1, 26]: 0.71 ± 0.12 µM | Kd [2, 27]: 2.5 ± 0.2 µM | Kd [5, 28]: 2.7 ± 1 µM | Kd [7, 29]: 40 ± 12 µM

CC(C)c1ccc(NC(=O)Oc2ccc3c(c2)[C@]2(C)CCN(C)[C@@H]2N3C)cc1 [(−)Cymserine, cymserine]
mode of inhibition ([1]; HuAChE enzymes): noncovalent inhibitor

CC(C)c1ccc(NC(=O)Oc2ccc3c(c2)C2(C)CCOC2N3C)cc1 (single isomer, unassigned; (+)) [(+)-Cymyl carbamate of physovenol, cymyl carbamate of physovenol]
Kd [1, 26]: 1 ± 0.2 µM | Kd [2, 27]: 5 ± 1.3 µM | Kd [5, 28]: 2.2 ± 0.7 µM | Kd [7, 29]: 57.1 ± 15 µM
